Results reported in US11702404B2, “GLP-1R modulating compounds” (priority 2019, dated 2023).
Like-named read-outs stand apart in the source and are kept apart here.

Key:
GLP-1R = GLP-1R (Homo sapiens, UniProt P43220); assay: GLP-1R activation: cAMP increase in CHO cells stably expressing GLP-1R; type: cell-based
[1] = Microsomal stability, human liver microsomes (predicted hepatic clearance); details: predicted from in vitro microsomal stability data
[2] = cAMP increase, CHO cells stably expressing GLP-1R, 10 point dose response, 30 minutes incubation, read-out: EC50

Chain of GLP-1R (P43220 24-463): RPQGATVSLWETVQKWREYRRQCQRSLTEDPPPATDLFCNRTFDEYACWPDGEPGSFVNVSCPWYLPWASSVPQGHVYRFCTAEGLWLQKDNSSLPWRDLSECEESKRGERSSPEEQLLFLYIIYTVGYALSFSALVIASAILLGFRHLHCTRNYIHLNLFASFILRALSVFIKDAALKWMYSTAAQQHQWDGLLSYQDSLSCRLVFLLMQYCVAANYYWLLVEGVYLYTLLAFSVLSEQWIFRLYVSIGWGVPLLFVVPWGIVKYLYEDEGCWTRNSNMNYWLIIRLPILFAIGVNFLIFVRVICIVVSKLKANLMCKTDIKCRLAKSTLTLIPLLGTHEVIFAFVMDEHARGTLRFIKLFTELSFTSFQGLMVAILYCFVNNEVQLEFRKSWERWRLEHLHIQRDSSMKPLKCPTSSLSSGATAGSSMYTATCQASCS

COC(CNC(C)=O)Cn1c(Cc2ccc(-c3cccc(OCc4ccc(C#N)cc4F)n3)cc2F)nc2ccc(C(=O)O)cc21 (single isomer, unassigned) [Example 341, 1-(3-acetamido-2-methoxypropyl)-2-(4-(6-((4-cyano-2-fluorobenzyl)oxy)pyridin-2-yl)-2-fluorobenzyl)-1H-benzo[d]imidazole-6-carboxylic acid]
EC50 (GLP-1R; [2]): 19.7 nM | Predicted Hepatic Clearance (Pred. Cl.) [1]: 5.67 mL/min/kg

N#Cc1ccc(COc2cccc(-c3cc(F)c(Cc4nc5ccc(C(=O)O)cc5n4CCNc4ccccn4)cc3F)n2)c(F)c1 [Example 835]
EC50 (GLP-1R; read-out: EC50): 515 nM | Predicted Hepatic Clearance (Pred. Cl.) [1]: 11.2 mL/min/kg

COCCn1c(Cc2cc(F)c(-c3cccc(OCc4ccc(C#N)c(F)c4)n3)cc2F)nc2ccc(C(=O)O)cc21 [Example 603, 2-(4-(6-((4-cyano-3-fluorobenzyl)oxy)pyridin-2-yl)-2,5-difluorobenzyl)-1-(2-methoxyethyl)-1H-benzo[d]imidazole-6-carboxylic acid]
EC50 (GLP-1R; EC50 (nM)): 4.13 nM | Predicted Hepatic Clearance (Pred. Cl.) [1]: 2.83 mL/min/kg

N#Cc1ccc(COc2ncc(F)c(-c3cc(F)c(Cc4nc5c(F)cc(C(=O)O)cc5n4C[C@@H]4CCO4)cc3F)n2)c(F)c1 [Example 886]
EC50 (GLP-1R; [2]): 0.18 nM | Predicted Hepatic Clearance (Pred. Cl.) [1]: 5.83 mL/min/kg

COCCn1c(Cc2ccc(-c3cccc(OCc4cc(F)c(C#N)cc4F)n3)cc2F)nc2ccc(C(=O)O)cc21 [Example 262, 2-(4-(6-((4-cyano-2,5-difluorobenzyl)oxy)pyridin-2-yl)-2-fluorobenzyl)-1-(2-methoxyethyl)-1H-benzo[d]imidazole-6-carboxylic acid]
EC50 (GLP-1R; [2]): 28.6 nM | Predicted Hepatic Clearance (Pred. Cl.) [1]: <1.83 mL/min/kg

COCCn1c(Cc2cc(F)c(-c3ccc(F)c(NCc4ccc(C#N)cc4F)n3)cc2F)nc2ccc(C(=O)O)cc21 [Example 164, 2-(4-(6-((4-cyano-2-fluorobenzyl)amino)-5-fluoropyridin-2-yl)-2,5-difluorobenzyl)-1-(2-methoxyethyl)-1H-benzo[d]imidazole-6-carboxylic acid]
EC50 (GLP-1R; [2]): 32.9 nM | Predicted Hepatic Clearance (Pred. Cl.) [1]: 6.7 mL/min/kg

O=C(O)c1ccc2nc(Cc3ccc(-c4cccc(OCc5ccc(Cl)cc5F)n4)c(F)c3)n(CC3(CF)CC3)c2n1 [Example 321, 2-(4-(6-((4-chloro-2-fluorobenzyl)oxy)pyridin-2-yl)-3-fluorobenzyl)-3-((1-(fluoromethyl)cyclopropyl)methyl)-3H-imidazo[4,5-b]pyridine-5-carboxylic acid]
EC50 (GLP-1R; [2]): 0.27 nM | Predicted Hepatic Clearance (Pred. Cl.) [1]: 6.33 mL/min/kg

COCCn1c(Cc2c(F)cc(-c3cccnc3OCc3ccccc3F)cc2F)nc2ccc(C(=O)O)cc21 [Example 192, 2-(2,6-difluoro-4-(2-((2-fluorobenzyl)oxy)pyridin-3-yl)benzyl)-1-(2-methoxyethyl)-1H-benzo[d]imidazole-carboxylic acid]
EC50 (GLP-1R; [2]): 437 nM | Predicted Hepatic Clearance (Pred. Cl.) [1]: 13 mL/min/kg

Cc1cnc(Cn2c(Cc3cc(F)c(-c4cccc(OCc5ccc(C#N)cc5F)n4)cc3F)nc3ccc(C(=O)O)cc32)o1 [Example 616]
EC50 (GLP-1R; [2]): 26.9 nM | Predicted Hepatic Clearance (Pred. Cl.) [1]: 8.33 mL/min/kg

N#Cc1ccc(COc2cccc(-c3ccc(Cc4nc5ccc(C(=O)NS(=O)(=O)C6CC6)cc5n4CC4(CF)CC4)c(F)c3)n2)c(F)c1 [Example 57, 2-(4-(6-((4-cyano-2-fluorobenzyl)oxy)pyridin-2-yl)-2-fluorobenzyl)-N-(cyclopropylsulfonyl)-1-((1-(fluoromethyl)cyclopropyl)methyl)-1H-benzo[d]imidazole-6-carboxamide]
EC50 (GLP-1R; [2]): 6.7 nM | Predicted Hepatic Clearance (Pred. Cl.) [1]: <1.83 mL/min/kg

N#Cc1ccc(COc2cccc(-c3ccc(Cc4nc5ccc(C(=O)O)cc5n4C4(CF)CC4)cc3F)n2)c(F)c1 [Example 209, 2-(4-(6-((4-cyano-2-fluorobenzyl)oxy)pyridin-2-yl)-3-fluorobenzyl)-1-(1-(fluoromethyl)cyclopropyl)-1H-benzo[d]imidazole-6-carboxylic acid]
EC50 (GLP-1R; [2]): 48.8 nM | Predicted Hepatic Clearance (Pred. Cl.) [1]: 8.5 mL/min/kg

O=C(O)c1ccc2nc(Cc3cc(F)c(-c4ccnc(OCc5ccc(Cl)cc5F)n4)cc3F)n(CC3(CF)CC3)c2n1 [Example 120, 2-(4-(2-((4-chloro-2-fluorobenzyl)oxy)pyrimidin-4-yl)-2,5-difluorobenzyl)-3-((1-(fluoromethyl)cyclopropyl)methyl)-3H-imidazo[4,5-b]pyridine-5-carboxylic acid]
EC50 (GLP-1R; [2]): 1.24 nM | Predicted Hepatic Clearance (Pred. Cl.) [1]: <1.83 mL/min/kg

COCCn1c(Cc2ccc(-c3cccc(OCc4ccc(C#N)cc4F)n3)c(F)c2)nc2c(F)cc(C(=O)O)cc21 [Example 681]
EC50 (GLP-1R; [2]): 5.64 nM | Predicted Hepatic Clearance (Pred. Cl.) [1]: 3.33 mL/min/kg

N#Cc1ccc(COc2cccc(-c3cc(F)c(Cc4nc5ccc(C(=O)O)cc5n4[C@H]4COC[C@H]4O)cc3F)n2)c(F)c1 [Example 613]
EC50 (GLP-1R; [2]): 0.54 nM | Predicted Hepatic Clearance (Pred. Cl.) [1]: 6.5 mL/min/kg

CC1(Cn2c(Cc3cc(F)c(-c4cccc(OCc5ccc(C#N)cc5F)n4)cc3F)nc3ccc(C(=O)O)cc32)CCOCC1 [Example 839]
EC50 (GLP-1R; [2]): 7.04 nM | Predicted Hepatic Clearance (Pred. Cl.) [1]: 5.83 mL/min/kg

CC(C)n1c(Cc2ccc(-c3cccc(OCc4ccc(C#N)cc4F)n3)cc2F)nc2ccc(C(=O)O)cc21 [Example 347, 2-(4-(6-((4-cyano-2-fluorobenzyl)oxy)pyridin-2-yl)-2-fluorobenzyl)-1-isopropyl-1H-benzo[d]imidazole-6-carboxylic acid]
EC50 (GLP-1R; [2]): 92.6 nM | Predicted Hepatic Clearance (Pred. Cl.) [1]: 5.5 mL/min/kg

N#Cc1ccc(COc2ccc(F)c(-c3ccc(Cc4nc5ccc(C(=O)O)cc5n4C[C@@H]4CCO4)c(F)c3)n2)c(F)c1 [Example 797]
EC50 (GLP-1R; [2]): 0.27 nM | Predicted Hepatic Clearance (Pred. Cl.) [1]: 7.17 mL/min/kg

N#Cc1ccc(COc2cccc(-c3cc(F)c(Cc4nc5ccc(C(=O)O)cc5n4CCN4CCOCC4)cc3F)n2)c(F)c1 [Example 561, 2-(4-(6-((4-cyano-2-fluorobenzyl)oxy)pyridin-2-yl)-2,5-difluorobenzyl)-1-(2-morpholinoethyl)-1H-benzo[d]imidazole-6-carboxylic acid]
EC50 (GLP-1R; read-out: EC50): 24.1 nM | Predicted Hepatic Clearance (Pred. Cl.) [1]: 9.5 mL/min/kg

COCCn1c(Cc2ccc(-c3cccc(OCc4ccc(C#N)cc4F)n3)c(F)c2C#N)nc2ccc(C(=O)O)cc21 [Example 391, 2-(2-cyano-4-(6-((4-cyano-2-fluorobenzyl)oxy)pyridin-2-yl)-3-fluorobenzyl)-1-(2-methoxyethyl)-1H-benzo[d]imidazole-6-carboxylic acid]
EC50 (GLP-1R; [2]): ≥ 1000 nM | Predicted Hepatic Clearance (Pred. Cl.) [1]: 5.42 mL/min/kg

O=C(O)c1cc(F)c2nc(Cc3cc(F)c(-c4cccc(OCc5ccc(C(F)F)cc5F)n4)cc3F)n(CC34CC(CO3)C4)c2c1 [Example 669]
EC50 (GLP-1R; [2]): 0.28 nM | Predicted Hepatic Clearance (Pred. Cl.) [1]: 1.83 mL/min/kg

COCCn1c(Cc2ccc(-c3cccc(OCc4ccc(C#N)cc4F)n3)cc2C2=CCN(C(=O)OC(C)(C)C)CC2)nc2ccc(C(=O)O)cc21 [Example 173, 2-(2-(1-(tert-butoxycarbonyl)-1,2,3,6-tetrahydropyridin-4-yl)-4-(6-((4-cyano-2-fluorobenzyl)oxy)pyridin-2-yl)benzyl)-1-(2-methoxyethyl)-1H-benzo[d]imidazole-6-carboxylic acid]
EC50 (GLP-1R; [2]): 774 nM | Predicted Hepatic Clearance (Pred. Cl.) [1]: 5 mL/min/kg
